ChEMBL document CHEMBL2417546, “Antitrypanosomal triterpenoid with an ε-lactone E-ring from Salvia urmiensis” (J Nat Prod, 2013)

How the values were obtained:
[1] = test system: Trypanosoma brucei rhodesiense; test: Antitrypanosomal activity against bloodstream form of Trypanosoma brucei rhodesiense STIB 900 by Alamar Blue assay; format: functional, organism-based
[2] = Selectivity index, ratio of IC50 for rat L6 cells to IC50 for bloodstream form of Trypanosoma brucei rhodesiense STIB 900; format: toxicity, cell-based; details: read-out: Ratio IC50
L6 = test: Cytotoxicity against rat L6 cells by Alamar Blue assay; format: cell-based

IC50 [1]: 5.6 µM
Compound: C[C@H]1[C@H](C)CC(=O)O[C@]2(C)CC[C@]3(C)C(=C[C@@H](O)[C@@H]4[C@@]5(C)[C@H](O)CC(=O)C(C)(C)[C@@H]5CC[C@]43C)[C@H]12
selectivity ratio [2]: 33.1
IC50 (L6): > 185 µM
